Source: a melting point compilation (Tetko et al.)

| SMILES | melting point [°C] |
| --- | --- |
| Brc1ccc(Oc2ccccc2Br)c(Br)c1 | < 20 |
| CC(=O)c1cc(Cl)cc(Cl)c1O | 97 |
| O=C(Cl)c1ccc(Cl)c(Cl)c1 | 32 |
| Nc1ccc(Cl)c(Cl)c1 | 72 |
| CCCCCCCCCCCCCCCCCCc1ccccc1 | 29 |
| COP(=S)(OC)Oc1ccc(C#N)cc1 | 14.5 |
| FC(F)(F)C(F)(F)C(Cl)Cl | -94 |
| c1ccc(-n2ccnc2)cc1 | 13 |
| O=C(O)CN(CC(=O)O)CC(=O)O | 245 |
| CC12C=CC3=C4CCC(=O)C=C4CCC3C1CCC2O (stereo unspecified) | 93 |
| Nc1ccc(Cl)cc1I | 40 to 42 |
| Cc1cc(C)c(N=C=S)cc1C | 22 to 24 |
| CCCCCCCCCCCCCC=CC(O)C(CO)NC(=O)CCCCCCCCCCCCCCC (stereo unspecified) | 94 to 95 |
| S=C=Nc1ccc2c(c1)OCO2 | 57 to 59 |
| Fc1cccc(C(F)(F)F)c1CBr | 44 |
| C=CC(C)(O)CCC=C(C)CCC=C(C)C (stereo unspecified) | 25 |
| Cn1ncc(Br)c1N | 104 to 105 |
| CC(=O)C1(O)CCC2(C)C(CCC3C2CCC2(C)C3CCC23OCCO3)C1 (stereo unspecified) | 182 to 190 |
| CC1NC2CCCCCCCC(=O)OC3CCC(CCCCCCCC(=O)OC1CC2)NC3C (stereo unspecified) | 121 |
| S=C(SC(=S)N1CCCCC1)N1CCCCC1 | 110 |
| CN1CCN(C)C(C(=O)NN)C1 (stereo unspecified) | 113 |

| SMILES | melting point [°C] |
| --- | --- |
| CC(=O)NC(C)C(=O)O (racemic) | 137 |
| OC12CC=CCC1(O)CC=CC2 (stereo unspecified) | 83 |
| COc1ccc(C#N)c(OC(F)(F)F)c1 | 32 |
| O=P(O)(O)C(Cl)(Cl)P(=O)(O)O | 250 |
| ON=C1C2CC3CC(C2)CC1C3 | 150 to 151 |
| OC(C(F)(F)F)(C(F)(F)F)C(O)(C(F)(F)F)C(F)(F)F | 18 to 20 |
| COc1ccc(-c2ccccc2)cc1NNC(=O)OC(C)C | 122 |
| CNC(=O)n1cc(F)c(=O)[nH]c1=O | 226 |
| Clc1cc2c(cc1Cl)Oc1cc(Cl)c(Cl)cc1O2 | 305 |
| Cc1cc(=S)cc(C)o1 | 142 |
| Cc1c(C)c2c(c3c1C(=O)C3)CC2=O | 207 |
| CCC(=O)c1ccc[nH]1 | 50 |
| O=C(O)c1ccc2nsnc2c1 | 229 to 231 |
| Cc1cc(C(C)(C)C)cc(C)c1O | 82.4 |
| CCN(CC)C(=O)N1CCN(C)CC1 | 48 |
| CCCCCCCCC(C(=O)O)C(=O)O | 116 |
| CC(=O)c1cccc(Cl)c1O | 80 to 83 |
| Fc1ccc(Oc2ccnc3cc(Cl)cc(Cl)c23)cc1 | 107 |
| CC12CCC3C(C(=O)CC4CC(=O)CCC43C)C1CCC2=O (stereo unspecified) | 229 to 234 |
| Fc1cc2nsnc2cc1Cl | 78 |
| O=C=Nc1c(F)cccc1F | 24 |

| SMILES | melting point [°C] |
| --- | --- |
| O=C(Cl)c1cc(Br)cc2c1OCC2 | 126 to 127 |
| CCCCC(CC)COC(=O)c1ccc(C(=O)OCC(CC)CCCC)cc1 (stereo unspecified) | 30 to 34 |
| O=C1OC(O)c2c(Cl)c(Cl)c(Cl)c(Cl)c21 (stereo unspecified) | 240 to 248 |
| NNc1cc(Cl)cc(Cl)c1 | 115 |
| Oc1ccc(Cl)c(Cl)c1Cl | 83.5 |
| CN=C1SC(CC(=O)O)C(=O)N1C (stereo unspecified) | 157 to 159 |
| CCCCCCC(O)CCC (stereo unspecified) | -11 |
| O=C(C(Cl)(Cl)Cl)C(Cl)(Cl)Cl | -2 |
| CC12CCC(O)CC1CCC1C2CCC2(C)C(C3=CC(=O)OC3)CCC12O (stereo unspecified) | 253 |
| ON=Cc1ccc(OC(F)(F)F)cc1 | 41 |
| CC(=O)OC1CC2C(C)C(=O)C3(C(O)CC4C5(C)CCCC4(C(O)OC5)C13)C2O (stereo unspecified) | 220 |
| Cc1cc(C)c(N)c(I)c1 | 65 |
| Cc1ccc(NC(=O)NC(C)(C)c2ccccc2)cc1 | 203 |
| O=C1CNCCN1 | 132 |
| O=S1(=O)CC=C(Cl)C1 | 90 to 92 |
| O=C(O)C(F)(F)C(F)(F)C(F)(F)C(F)(F)C(F)(F)C(F)(F)C(F)(F)C(F)(F)C(F)(F)C(F)(F)C(F)(F)C(F)(F)C(F)(F)F | 130 |
| Cc1c(C)c2c(c3c1CC3=O)CC2=O | 161 |
| Cc1nc(S(=O)(=O)Cl)cn1C | 91 to 94 |
| O=C(O)C12CC3CC(CC(Cl)(C3)C1)C2 | 136 to 140 |
| OCC(Br)C(Br)CO (stereo unspecified) | 85 |
| CC1CNC(C(C2=NCC(C)N2)C2=NCC(C)N2)=N1 (stereo unspecified) | 241 to 242 |

Other lines, results leading:

| melting point [°C] | SMILES |
| --- | --- |
| 72 to 74 | COC(=O)c1nn2ccccc2c1C(=O)OC |
| 35 | Cc1ccc([N+](=O)[O-])cc1F |
| 109 to 112 | CN1C(=O)Cc2cc(N)ccc21 |
| 82 | Brc1cccc2cnccc12 |
| 304 | N#Cc1c(-c2ccc(F)cc2)c(C#N)c(=O)n(N)c1N |
| 89 to 92 | CC(=O)c1ccn(S(=O)(=O)c2ccccc2)c1 |
| 205 | CC(CNC(=O)c1ccccc1)C(=O)OCC(=O)C12OC(C)(C)OC1CC1C3CCC4=CC(=O)C=CC4(C)C3(F)C(O)CC12C (stereo unspecified) |
| 227 to 228 | CC(C)(C)c1cc(C(=S)Nc2ccccc2)cc(C(C)(C)C)c1O |
| 210 | Nc1cc(CCNC(=O)c2ccccc2)ccc1CCNC(=O)c1ccccc1 |
| 64.5 | OCC(c1ccccc1)c1ccccc1 |
| 231 to 232 | O=C(O)c1ccc(-c2ccco2)cc1 |
| 178 | Cc1ccccc1/N=N/c1c(C)[nH]c(=S)c(C#N)c1C |
| 97 | C#CC(C)(CC)OC(=O)c1ccccc1C(=O)O (stereo unspecified) |
| 93 to 94 | CC(C)CCOC(=O)C=Cc1ccc(C=CC(=O)OCCC(C)C)c([N+](=O)[O-])c1 |
| 151 to 155 | O=Cc1coc2ccccc2c1=O |
| 98 | CCOc1ccc(-c2nnc3n2NC(c2ccc([N+](=O)[O-])cc2)S3)cc1 (stereo unspecified) |
| 61 | Cc1cc(Cl)cc([N+](=O)[O-])c1 |
| 174 | COc1ccc2cc([N+](=O)[O-])ccc2c1C=O |
| 83 to 85 | CC(=O)/C(=N\Nc1cc(Cl)ccc1Cl)C(=O)C(F)(F)F |
| 242 | COc1ccc2c3c([nH]c2c1)C1CC2C(CC(O)C(OC)C2C(=O)O)CN1CC3 (stereo unspecified) |
| 147 | c1ccc(-c2cccc3cccc(-c4ccccc4)c23)cc1 |

| melting point [°C] | SMILES |
| --- | --- |
| 103 | CC(=O)N(C)c1ccccc1 |
| 290 | O=c1c(Cc2c(O)oc3ccccc3c2=O)c(O)oc2ccccc12 |
| 39 | CC(COc1ccccc1)N(CCCl)Cc1ccccc1 (stereo unspecified) |
| 154 | CC1CCC(C)(C(=O)CCOC(=S)Nc2ccccc2)C1(C)C (stereo unspecified) |
| 250 | Cn1nnc2cc(C(=O)O)ccc21 |
| 104 | CCOc1ccc(OC(=O)c2ccccc2)cc1 |
| 102 to 104 | Cc1cscc1S(=O)(=O)c1ccc(Cl)cc1 |
| 144 to 145 | Nc1ccc(-c2cccs2)nc1 |
| 142 | COc1ccccc1OCC(N)=O |
| 321 | COc1ccc(C=C(C#N)C(N)=O)cc1 |
| 118 | c1ccc(-c2ccccc2-c2ccccc2-c2ccccc2)cc1 |
| 245 | O=C(O)c1cnc2ccc(OC(F)(F)F)cc2c1O |
| 51 | CCOC(=O)C(C#N)=Cc1ccccc1 |
| 68 | Cc1cc(N(C)C)ccc1N=Nc1ccccc1 |
| 13 | CCCCOC(=O)C(C)Oc1ccc(Oc2ccc(C(F)(F)F)cn2)cc1 (stereo unspecified) |
| 137 | COc1ccc(C(=CCC(=O)O)C(C)(C)C(=O)O)cc1 |
| 200 | O=C(O)c1cccc(C(=O)O)c1C(=O)O |
| 216 to 218 | Nc1ccc(S(=O)(=O)N2CCOCC2)cc1 |
| 124 | Cc1ccn2c(=O)c3ccccc3cc2c1 |
| 76.5 to 77.5 | OCc1ccc(-c2ncccn2)cc1 |
| 121 to 122 | O=S(=O)(Cl)c1cc(Br)cc2c1OCC2 |

| melting point [°C] | SMILES |
| --- | --- |
| 174 to 175 | CSc1nc2cc(N=Cc3ccc(F)cc3)ccc2[nH]1 |
| 204 | CC1(C)CC(=O)C2=C(C1)Nc1ccc3ccccc3c1C2c1ccc(F)cc1 (stereo unspecified) |
| 173 | COC(=O)C1=C(C)NC(C)=C(C(=O)OC)C1c1ccccc1[N+](=O)[O-] |
| 145 to 148 | CC(C)(C)OC(=O)NC(Cc1cccc2ccccc12)C(=O)O (stereo unspecified) |
| 133 | N#C/C(=N/Nc1cc(Cl)ccc1Cl)c1nc(-c2ccccc2)cs1 |
| 147 | COc1ccccc1-c1ccc(C=C2C(=O)OC(C)(C)OC2=O)o1 |
| 154 to 159 | CC1(NC(=O)c2ccccc2)COCOC1=O (racemic) |
| 184 to 185 | O=C(O)c1ccc(CN2CCCC2)cc1 |
| 188 | N#C/C(=N\Nc1ccc(Cl)cc1)c1nc2ccccc2s1 |
| 207 | CCOC(=O)NNC(=O)Nc1ccc(Cl)c(Cl)c1 |
| 156 | O=[N+]([O-])c1cc(S(=O)(=O)Nc2ccccc2)ccc1Nc1ccccc1 |
| 134 | NC(=O)c1ccc(F)c(F)c1 |
| 136 to 137 | O=C(Cl)c1cccc(-c2ncccn2)c1 |
| 92 to 94 | O=C(OC1OC(COCc2ccccc2)C(OCc2ccccc2)C1OCc1ccccc1)c1ccc([N+](=O)[O-])cc1 (stereo unspecified) |
| 72 | Cc1ccccc1NCCNc1ccccc1C |
| 133 to 134 | O=S(=O)(Cl)c1ccc(S(=O)(=O)N2CCCC2)cc1 |
| 172 to 174 | O=[N+]([O-])c1ccc(-c2ccno2)cc1 |
| 145 | COC(=O)C(Br)C(Br)c1cccc(C(Br)C(Br)C(=O)OC)c1 (stereo unspecified) |
| 64 to 66 | Cc1cc(C)c([N+](=O)[O-])c(C)c1Br |
| 171 to 175 | O=C(c1ccc(Br)cc1)[C@H]1CCCC[C@H]1C(=O)O (relative stereo) |
| 102 | CC(=O)Oc1cc(C)ccc1C1(C)CC(C)(C)c2ccc(C)cc2O1 (stereo unspecified) |
